The source of these data is US8299070B2, “Indole compounds and pharmaceutical use thereof” (Japan Tobacco Inc., priority 2009, dated 2012).

This assay addresses T1, hITK enzyme (FLAG-tagged full-length hITK) (Homo sapiens, UniProt Q08881).
T1 construct: strongly expressing FLAG-tagged full-length hITK in Sf9 cells; FLAG; made in house; host or cells: Sf9 insect cells (ITK); Escherichia coli (GST-SLP76 substrate)
T1 sequence (Q08881 1-620): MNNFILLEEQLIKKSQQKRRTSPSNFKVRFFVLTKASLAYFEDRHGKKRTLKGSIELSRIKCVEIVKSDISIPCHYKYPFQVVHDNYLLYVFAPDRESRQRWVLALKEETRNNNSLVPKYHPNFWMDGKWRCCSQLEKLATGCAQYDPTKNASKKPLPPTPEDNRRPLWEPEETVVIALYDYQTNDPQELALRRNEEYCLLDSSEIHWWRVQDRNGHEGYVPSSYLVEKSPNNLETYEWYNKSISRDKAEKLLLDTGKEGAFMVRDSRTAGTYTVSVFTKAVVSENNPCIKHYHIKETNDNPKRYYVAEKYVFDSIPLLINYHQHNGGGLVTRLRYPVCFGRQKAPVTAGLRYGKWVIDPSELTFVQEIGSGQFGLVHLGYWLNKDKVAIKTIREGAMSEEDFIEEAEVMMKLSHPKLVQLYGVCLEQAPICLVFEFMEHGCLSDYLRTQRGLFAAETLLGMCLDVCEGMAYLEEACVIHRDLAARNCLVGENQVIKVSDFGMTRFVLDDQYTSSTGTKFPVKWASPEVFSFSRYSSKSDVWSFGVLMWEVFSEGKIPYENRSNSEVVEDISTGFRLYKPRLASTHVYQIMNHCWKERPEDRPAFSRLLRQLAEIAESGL
The assay can be described thus: ITK inhibitory activity (HTRF kinase assay, biotinylated GST-SLP76 substrate). The format is biochemical. The conditions noted are these: IC50 calculated from the 2 test compound concentrations sandwiching 50% ITK inhibitory rate. As for the experimental part: (1) Preparation of hITK Enzyme
hITK enzyme was prepared by strongly expressing FLAG-tagged full-length hITK in Sf9 cells, and purifying same by anti-FLAG antibody column.
(2) Preparation of biotinylated GST-SLP76
Biotinylated GST-SLP76 was prepared by strongly expressing GST-tagged SLP76 (aa95-175) in Escherichia coli, purifying same by glutathion sepharose column and biotinylating same.
(3) Preparation of Solution
(i) buffer for dilution: 20 mmol/L 3-(N-morpholino)propanesulfonic acid (pH 7.0) (DOJINDO LABORATORIES), 10 mmol/L magnesium chloride (Sigma-Aldrich Corporation), 1 mmol/L dithiothreitol (Nacalai Tesque, Inc.), 0.1% gelatin (Sigma-Aldrich Corporation)
(ii) substrate solution: 0.2 μg/mL biotinylated GST-SLP76, 100 μmol/L ATP (Sigma-Aldrich Corporation), prepared with buffer for dilution
(iii) test compound solution: test compound, 50% dimethyl sulfoxide (DMSO), prepared with buffer for dilution
(iv) enzyme solution: 50 ng/mL hITK enzyme, prepared with buffer for dilution
(v) control solution: solution after removal of test compound from the mixture of the above-mentioned (i), (ii) and (iii)
(vi) blank solution: solution after removal of ATP from the mixture of the above-mentioned (i), (ii) and (iii)
(vii) detection buffer: 0.1 μg/mL Anti-Phosphotyrosine (PT66)-Cryptate (Cisbio), 2.5 μg/mL streptavidin-binding XL665 (Cisbio), 50 mmol/L 4-(2-hydroxyethyl)-1-piperazineethanesulfonic acid (pH 7.4) (Nacalai Tesque, Inc.), 30 mmol/L EDTA (NipponGene), 0.1% TritonX (Sigma-Aldrich Corporation), 200 mmol/L potassium fluoride (Wako Pure Chemical Industries, Ltd.), 0.05% bovine serum albumin (Sigma-Aldrich Corporation) (4) Measurement of ITK Inhibitory Activity
A substrate solution (25 μL/well), a test compound solution (5 μL/well) and an enzyme solution (20 μL/well) were added into 96 well half-area white plate (plate, Corning Incorporated 3642) to start a kinase reaction. The plate was stood still at room temperature for 10 min. Then, a detection buffer (50 μL/well) was added to the plate. After 2 hr from the addition of the detection buffer, fluorescence intensity at 620 nm (excited at 337 nm), and fluorescence intensity at 665 nm ([…]) were measured by a fluorescence microplate reader.
The Ratio (fluorescence intensity at 665 nm/fluorescence intensity at 620 nm×10000) of each test compound was calculated from the measured fluorescence intensity. Simultaneously, the measurement was performed using a blank solution and a control solution, and % of control value of each test compound was calculated from the following formula. % of control=(Ratio of test compound−Ratio of blank)/(Ratio of control−Ratio of blank)×100 ITK inhibitory rate (%)=100−(% of control)
The IC50 value was calculated from the test compound concentrations at 2 points sandwiching 50% ITK inhibitory rate.
In the test for the compounds of Examples 380 and 381, the ATP concentration of the substrate solutions was 6 μmol/L.
With `CCC(=O)N(C)c1ccc2cc(-c3n[nH]c4c3CC(OC(C)C)CC4)[nH]c2c1` (stereo not drawn) [Example 371], the half-maximal inhibitory concentration (IC50) was 112 nM.

For `COCCNC(=O)c1ccc2[nH]c(-c3n[nH]c4c3CCC(C)(C)C4)cc2c1` [Example 310], the IC50 is 47 nM.

Turning to `CC(=O)Nc1ccc2cc(-c3n[nH]c4c3CCC(C)(C)C4)[nH]c2c1` [Example 374], the IC50 was 130 nM.

As for `C[C@H]1COCC(=O)N1CC(=O)N(C)c1ccc2cc(-c3n[nH]c4c3CCC(C)(C)C4)[nH]c2c1` [Example 172], the IC50 was 2 nM.

As to `CCN(c1ccc2cc(-c3n[nH]c4c3CCC(C)(C)C4)[nH]c2c1)C(=O)[C@H]1CC[C@@H](O)CC1` [Example 258], the 50% inhibitory concentration (IC50) was 4 nM.

In the case of `COCC(O)C(=O)N(C)c1ccc2cc(-c3n[nH]c4c3CCC(C)(C)C4)[nH]c2c1` (stereo not drawn) [Example 53], the concentration for half-maximal inhibition (IC50) was 8 nM.

On to `CC1(C)CCc2c(-c3cc4cc(C(=O)NCCN5CCOCC5)ccc4[nH]3)n[nH]c2C1` [Example 322], for which the 50% inhibitory concentration (IC50) is 41 nM.

Take `CN(C(=O)CN1CCCC1=O)c1ccc2cc(-c3n[nH]c4c3CCC(C)(C)C4)[nH]c2c1` [Example 83]: the concentration for half-maximal inhibition (IC50) was under 3 nM.

In the case of `CC1CN(C(C)C(=O)N(C)c2ccc3cc(-c4n[nH]c5c4CCC(C)(C)C5)[nH]c3c2)CC(C)O1` (stereo not drawn) [Example 120], the half-maximal inhibitory concentration (IC50) is 5 nM.

For the molecule `CC1CCCC(=O)N1CC(=O)N(C)c1ccc2cc(-c3n[nH]c4c3CCC(C)(C)C4)[nH]c2c1` (stereo not drawn) [Example 137], the IC50 was 2 nM.

Take `Cn1cccc1CNC(=O)c1ccc2[nH]c(-c3n[nH]c4c3CCC(C)(C)C4)cc2c1` [Example 319]: the IC50 was 46 nM.

Turning to `CC1COCCN1CC(=O)N(C)c1ccc2cc(-c3n[nH]c4c3CCC(C)(C)C4)[nH]c2c1` (stereo not drawn) [Example 145], the concentration for half-maximal inhibition (IC50) is 3 nM.

In the case of `COCC(=O)N(CCN(C)C)c1ccc2cc(-c3n[nH]c4c3CCC(C)(C)C4)[nH]c2c1` [Example 222], the IC50 was under 3 nM.

Regarding `Cc1cc(C(=O)N(C)c2ccc3cc(-c4n[nH]c5c4CCC(C)(C)C5)[nH]c3c2)no1` [Example 59], the half-inhibitory concentration (IC50) was 7 nM.

As for `CN(C)CCN(C(=O)C1CCOCC1)c1ccc2cc(-c3n[nH]c4c3CCC(C)(C)C4)[nH]c2c1` [Example 216], the IC50 is 8 nM.

For the molecule `CC(C(=O)N(C)c1ccc2cc(-c3n[nH]c4c3CCC(C)(C)C4)[nH]c2c1)N1CCCC1=O` (stereo not drawn) [Example 134], the 50% inhibitory concentration (IC50) was 8 nM.

As to `CN(C(=O)CN1CCOCC1)c1ccc2cc(-c3n[nH]c4c3CCC(C)(C)C4)[nH]c2c1` [Example 80], the 50% inhibitory concentration (IC50) is 3 nM.

In the case of `CC1(C)CCc2c(-c3cc4ccc(N5CCOC5=O)cc4[nH]3)n[nH]c2C1` [Example 208], the IC50 is 29 nM.

For `CC1(C)CCc2c(-c3cc4ccc(N5CCC(C)(O)C5=O)cc4[nH]3)n[nH]c2C1` (stereo not drawn) [Example 244], the IC50 is 23 nM.

As to `CC(C(=O)N(C)c1ccc2cc(-c3n[nH]c4c3CCC(C)(C)C4)[nH]c2c1)N(CCO)CC(=O)O` (stereo not drawn) [Example 379], the half-maximal inhibitory concentration (IC50) was 4 nM.

As for `CN(C(=O)CN1CCC(C)(C)CC1=O)c1ccc2cc(-c3n[nH]c4c3CCC(C)(C)C4)[nH]c2c1` [Example 189], the IC50 is 1 nM.

As to `CN(C(=O)C1CCOCC1)c1ccc2cc(-c3n[nH]c4c3CCC(C)(C)C4)[nH]c2c1` [Example 60], the IC50 was 5 nM.

Regarding `CN(C(=O)CN1CCCCCCC1=O)c1ccc2cc(-c3n[nH]c4c3CCC(C)(C)C4)[nH]c2c1` [Example 187], the concentration for half-maximal inhibition (IC50) is 2 nM.

Regarding `CN(C(=O)C(O)C1CCCOC1)c1ccc2cc(-c3n[nH]c4c3CCC(C)(C)C4)[nH]c2c1` (stereo not drawn) [Example 96], the IC50 was 3 nM.

For `CC(C)CNC(=O)c1ccc2cc(-c3n[nH]c4c3CCC(C)(C)C4)[nH]c2c1` [Example 12], the IC50 is 33 nM.

Take `CCC(=O)N(CCOC)c1ccc2cc(-c3n[nH]c4c3CCC(C)(C)C4)[nH]c2c1` [Example 212]: the IC50 was 5 nM.

As to `CC(C)C(CO)NC(=O)c1ccc2cc(-c3n[nH]c4c3CCC(C)(C)C4)[nH]c2c1` (stereo not drawn) [Example 23], the half-inhibitory concentration (IC50) was 18 nM.

Take `CC(=O)N1CCC[C@@H]1C(=O)N(C)c1ccc2cc(-c3n[nH]c4c3CCC(C)(C)C4)[nH]c2c1` [Example 166]: the 50% inhibitory concentration (IC50) was 1 nM.

`CN(C(=O)C1CCCC1)c1ccc2cc(-c3n[nH]c4c3CCC(C)(C)C4)[nH]c2c1` [Example 33]: the IC50 was 11 nM.

For `CC(NCCO)C(=O)N(C)c1ccc2cc(-c3n[nH]c4c3CCC(C)(C)C4)[nH]c2c1` (stereo not drawn) [Example 376], the IC50 is 2 nM.

Turning to `CN(C)CCN(C(=O)C1CCCCC1)c1ccc2cc(-c3n[nH]c4c3CCC(C)(C)C4)[nH]c2c1` [Example 215], the IC50 is under 3 nM.

With `CN(C)CCN(C(=O)CC1CCCCC1)c1ccc2cc(-c3n[nH]c4c3CCC(C)(C)C4)[nH]c2c1` [Example 219], the half-inhibitory concentration (IC50) was 4 nM.

Consider `CN(C(=O)C1CCOCC1)c1ccc2[nH]c(-c3n[nH]c4c3CCC(C)(C)C4)cc2c1` [Example 341], for which the IC50 was 333 nM.

`CN(C(=O)CN1CC(C)(C)CC1=O)c1ccc2cc(-c3n[nH]c4c3CCC(C)(C)C4)[nH]c2c1` [Example 163]: the half-inhibitory concentration (IC50) is 1 nM.

Turning to `CC[C@H](C(=O)N(C)c1ccc2cc(-c3n[nH]c4c3CCC(C)(C)C4)[nH]c2c1)N1CCOCC1` [Example 191], the 50% inhibitory concentration (IC50) is 7 nM.

With `CC1(C)CCc2c(-c3cc4ccc(C(=O)N5CCC(O)CC5)cc4[nH]3)n[nH]c2C1` [Example 16], the half-maximal inhibitory concentration (IC50) was 25 nM.

For `CCN(C(=O)[C@H](C)N1CCOCC1)c1ccc2cc(-c3n[nH]c4c3CCC(C)(C)C4)[nH]c2c1` [Example 275], the IC50 was 2 nM.

Turning to `CCC(C(=O)N(C)c1ccc2cc(-c3n[nH]c4c3CCC(C)(C)C4)[nH]c2c1)N1CCOCC1` (stereo not drawn) [Example 129], the 50% inhibitory concentration (IC50) was 5 nM.

As for `CC1(C)CCc2c(-c3cc4cc(C(=O)N5CCCC5)ccc4[nH]3)n[nH]c2C1` [Example 332], the half-inhibitory concentration (IC50) is 46 nM.

In the case of `CC(C(=O)N(C)c1ccc2cc(-c3n[nH]c4c3CCC(C)(C)C4)[nH]c2c1)N1CCCCC1` (stereo not drawn) [Example 122], the IC50 is 20 nM.

Take `CC[C@@H](C(=O)N(C)c1ccc2cc(-c3n[nH]c4c3CCC(C)(C)C4)[nH]c2c1)N1CCOCC1` [Example 190]: the concentration for half-maximal inhibition (IC50) is 4 nM.

With `COCC(=O)N(C)c1ccc2cc(-c3n[nH]c4c3CC(O)CC4)[nH]c2c1` (stereo not drawn) [Example 366], the IC50 is 82 nM.

For `CN(C(=O)[C@H](O)C1CCCCC1)c1ccc2cc(-c3n[nH]c4c3CCC(C)(C)C4)[nH]c2c1` [Example 77], the IC50 is 6 nM.

With `CCC(=O)N(C)CC(=O)N(CC)c1ccc2cc(-c3n[nH]c4c3CCC(C)(C)C4)[nH]c2c1` [Example 292], the IC50 was 2 nM.

In the case of `CN(C(=O)NCc1ccccc1)c1ccc2cc(-c3n[nH]c4c3CCC(C)(C)C4)[nH]c2c1` [Example 51], the concentration for half-maximal inhibition (IC50) is 26 nM.

Consider `COCC(=O)N(CCO)c1ccc2cc(-c3n[nH]c4c3CCC(C)(C)C4)[nH]c2c1` [Example 213], for which the IC50 is under 3 nM.

Turning to `CC1(C)CCc2c(-c3cc4cc(C(=O)NCCO)ccc4[nH]3)n[nH]c2C1` [Example 303], the IC50 was 33 nM.

`CN(C(=O)Cn1cccn1)c1ccc2cc(-c3n[nH]c4c3CCC(C)(C)C4)[nH]c2c1` [Example 157]: the 50% inhibitory concentration (IC50) was 1 nM.

As a reminder, the IC50 is the concentration needed to halve the response being measured.
